Assay results: US20240092835A1, “NOVEL PEPTIDES CAPABLE OF ALTERING NK CELL ACTIVITY” (Massachusetts Institute of Technology, priority 2022, published 2024)
Entries after “also recorded” stand apart in the source; their conditions may differ. Where no end group is shown, it is not given here.

Legend:
NKG2A−/NKG2C+ NK cells [1] = assay: NK cell activation markers in NKG2A-/NKG2C+ NK cells incubated with peptide and K562 expressing HLA-E (activation); assay type: cell-based, human; conditions: for effect on NKG2A−/NKG2C+ NK cell activation (in words): K562 expressing HLA-E, CD107a, IFNG, TNF, CCL3; for percentage of CCL3+ NK cells / percentage of CD107+ NK cells / percentage of IFNG+ NK cells / percentage of TNF+ NK cells: NKG2A-/NKG2C+ NK cells, K562/HLA-E
Procedure, shortened: (§1)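 Percent-positive cells for NK activation surface markers were measured after NK cells met peptide-treated K562 cells expressing HLA-E. A decrease in that fraction was scored as inhibition and an increase as activation; NKG2A−/NKG2C− cells served as controls.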

NKG2A−/NKG2C− NK cells = assay: NK cell activation markers in control NKG2A-/NKG2C- NK cells incubated with peptide and K562 expressing HLA-E; assay type: cell-based, human
Procedure, shortened: as §1

NKG2A−/NKG2C+ NK cells [2] = assay: NKG2A-/NKG2C+ NK cell activation with peptide and RMA-S cells expressing HLA-E; assay type: cell-based; conditions: RMA-S cells expressing HLA-E
Protocol: An antigen processing-defective lymphoma cell line (RMA-S), with a low-level expression of HLA-E, were incubated with the novel peptides to determine the inhibitory strength on NKG2A−/NKG2C+NK cells relative to positive control sequences with differential effects ([…] (SEQ ID NO: 19)/VMAPRTLFL (SEQ ID NO: 18)). The effects of the peptides on NK cell inhibition were determined by measuring four markers of NK cell activation (CD107a, IFNG, TNF, CCL3) in NKG2A−/NKG2C+NK cells (FIGS. 2A-2D). Activation was indicated by an increase in percent cells positive for cell surface markers.

HLA-E = target: T1, HLA-E (Homo sapiens, UniProt P13747); assay: HLA-E surface stabilization assay with RMA-S/HLA-E cells; assay type: cell-based; conditions: 30 μM peptide, 16 hours; for HLA-E surface expression stability (GeoMFI): anti-HLA-E antibody
T1 construct: expressed in transfected cells; host or cells: RMA-S/HLA-E cells (antigen processing-defective lymphoma cell line)
T1 sequence (P13747 22-358): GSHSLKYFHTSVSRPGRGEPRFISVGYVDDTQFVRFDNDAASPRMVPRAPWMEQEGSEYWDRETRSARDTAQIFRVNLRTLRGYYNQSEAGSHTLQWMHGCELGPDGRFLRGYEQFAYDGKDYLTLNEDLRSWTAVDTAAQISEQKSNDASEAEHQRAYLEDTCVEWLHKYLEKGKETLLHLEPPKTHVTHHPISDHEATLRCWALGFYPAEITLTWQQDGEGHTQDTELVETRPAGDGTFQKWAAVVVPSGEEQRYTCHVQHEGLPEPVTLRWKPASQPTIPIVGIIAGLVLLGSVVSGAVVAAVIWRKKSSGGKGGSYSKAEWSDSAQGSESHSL
T1 sequence (P61769 21-119 partner): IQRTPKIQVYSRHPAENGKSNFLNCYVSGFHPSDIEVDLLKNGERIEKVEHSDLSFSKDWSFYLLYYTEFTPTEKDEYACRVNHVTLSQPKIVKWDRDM
Protocol: HLA-E surface expression was assessed by measuring geometric mean fluorescence intensity (GeoMFI) in RMA-S cells following immunofluorescence staining with an anti-HLA-E antibody (Table 14). Increased GeoMFI was indicative of increased HLA-E surface expression stability following novel peptide exposures (FIG. 3).

CD94/NKG2C = CD94/NKG2C (Homo sapiens, UniProt P26717+Q13241); assay: Steady-state surface plasmon resonance of peptide-HLA-E complex with CD94/NKG2C; assay type: binding; conditions: for Binding of peptide-HLA-E complexes to CD94/NKG2C normalized to a theoretical Rmax: steady-state SPR
Sequence of CD94/NKG2C (P26717 94-231 limits assumed): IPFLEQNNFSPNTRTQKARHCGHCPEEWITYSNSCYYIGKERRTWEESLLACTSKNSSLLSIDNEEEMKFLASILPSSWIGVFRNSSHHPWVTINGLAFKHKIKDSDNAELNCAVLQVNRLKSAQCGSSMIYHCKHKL
Sequence of CD94/NKG2C (Q13241 32-179 limits assumed): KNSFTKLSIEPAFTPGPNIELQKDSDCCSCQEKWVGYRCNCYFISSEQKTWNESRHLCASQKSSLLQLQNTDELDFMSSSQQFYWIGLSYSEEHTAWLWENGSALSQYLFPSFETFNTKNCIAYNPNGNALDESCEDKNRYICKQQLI
Protocol: Binding affinity of novel peptides linked to HLA-E was determined using surface plasmon resonance (SPR), a methodology used to study protein-protein interactions (Tables 15-19). The peptide-HLA-E complex (generated as a single chain trimer) was immobilized on the sensor chip surface and CD94/NKG2A or CD94/NKG2C were flowed over. Steady-state surface plasmon resonance experiments were performed with a Biacore T200 instrument. CD94/NKG2x in HBS-EP+ buffer was injected as analyte in a concentration range of 0.1 μM to 102.4 μM and flow rate of 10 μL/min at 25° C. Data was fit with Prism 9.4 (GraphPad Software Inc; San Diego CA) to a “one site, specific binding” model. Series S CM5 chips were coupled to neutravidin and utilized. Biotinylated pMHC was immobilized at approximately 400 RU. KD values calculated by Biacore software are reported. Rmax, fit values were calculated by Biacore software. Rmax, theoretical values were calculated using the analyte/ligand mass ratio (0.66) multiplied by the amount of ligand coupled to the chip.

What does the source list for VNPGRSLFL [human5, VNPGRSLFL]?
effect on NKG2A−/NKG2C+ NK cell activation (in words) (NKG2A−/NKG2C+ NK cells [1]; listed as SEQ ID NO. 3): activate; effect on NKG2A−/NKG2C+ NK cell activation (in words) (NKG2A−/NKG2C+ NK cells [1]; listed as h5): activated; percentage of CCL3+ NK cells (NKG2A−/NKG2C+ NK cells [1]; Trial 1): 60.9%; percentage of CD107+ NK cells (NKG2A−/NKG2C+ NK cells [1]; Trial 1): 59.7%; percentage of IFNG+ NK cells (NKG2A−/NKG2C+ NK cells [1]; Trial 1): 35.3%; percentage of TNF+ NK cells (NKG2A−/NKG2C+ NK cells [1]; Trial 1): 17.4%; percentage of CCL3+ NK cells (NKG2A−/NKG2C+ NK cells [1]; Trial 2): 74.5%; percentage of CD107+ NK cells (NKG2A−/NKG2C+ NK cells [1]; Trial 2): 61.8%; percentage of IFNG+ NK cells (NKG2A−/NKG2C+ NK cells [1]; Trial 2): 43.2%; percentage of TNF+ NK cells (NKG2A−/NKG2C+ NK cells [1]; Trial 2): 23.9%; percentage of CCL3+ NK cells (NKG2A−/NKG2C+ NK cells [1]; Trial 3): 72.5%; percentage of CD107+ NK cells (NKG2A−/NKG2C+ NK cells [1]; Trial 3): 72.6%; percentage of IFNG+ NK cells (NKG2A−/NKG2C+ NK cells [1]; Trial 3): 57.2%; percentage of TNF+ NK cells (NKG2A−/NKG2C+ NK cells [1]; Trial 3): 42.2%; percentage of CCL3+ NK cells (NKG2A−/NKG2C+ NK cells [1]; Trial 4): 63.8%; percentage of CD107+ NK cells (NKG2A−/NKG2C+ NK cells [1]; Trial 4): 64.3%; percentage of IFNG+ NK cells (NKG2A−/NKG2C+ NK cells [1]; Trial 4): 51.1%; percentage of TNF+ NK cells (NKG2A−/NKG2C+ NK cells [1]; Trial 4): 36%; percentage of CCL3+ NK cells (NKG2A−/NKG2C+ NK cells [1]; Trial 5): 69.7%; percentage of CD107+ NK cells (NKG2A−/NKG2C+ NK cells [1]; Trial 5): 67.6%; percentage of IFNG+ NK cells (NKG2A−/NKG2C+ NK cells [1]; Trial 5): 53.4%; percentage of TNF+ NK cells (NKG2A−/NKG2C+ NK cells [1]; Trial 5): 40.4%; percentage of CCL3+ NK cells (NKG2A−/NKG2C+ NK cells [1]; Trial 6): 47.2%; percentage of CD107+ NK cells (NKG2A−/NKG2C+ NK cells [1]; Trial 6): 46.8%; percentage of IFNG+ NK cells (NKG2A−/NKG2C+ NK cells [1]; Trial 6): 28.6%; percentage of TNF+ NK cells (NKG2A−/NKG2C+ NK cells [1]; Trial 6): 15%; percentage CCL3+ NK cells (NKG2A−/NKG2C− NK cells; Trial 1): 33%; percentage CD107+ NK cells (NKG2A−/NKG2C− NK cells; Trial 1): 26.5%; percentage TNF+ NK cells (NKG2A−/NKG2C− NK cells; Trial 1): 4.11%; percentage of IFNG+ NK cells (NKG2A−/NKG2C− NK cells; Trial 1): 14.6%; percentage CCL3+ NK cells (NKG2A−/NKG2C− NK cells; Trial 2): 55.5%; percentage CD107+ NK cells (NKG2A−/NKG2C− NK cells; Trial 2): 32.5%; percentage TNF+ NK cells (NKG2A−/NKG2C− NK cells; Trial 2): 10.4%; percentage of IFNG+ NK cells (NKG2A−/NKG2C− NK cells; Trial 2): 26.3%; percentage CCL3+ NK cells (NKG2A−/NKG2C− NK cells; Trial 3): 53.4%; percentage CD107+ NK cells (NKG2A−/NKG2C− NK cells; Trial 3): 48.1%; percentage TNF+ NK cells (NKG2A−/NKG2C− NK cells; Trial 3): 18%; percentage of IFNG+ NK cells (NKG2A−/NKG2C− NK cells; Trial 3): 41.4%; percentage CCL3+ NK cells (NKG2A−/NKG2C− NK cells; Trial 4): 30.6%; percentage CD107+ NK cells (NKG2A−/NKG2C− NK cells; Trial 4): 27.8%; percentage TNF+ NK cells (NKG2A−/NKG2C− NK cells; Trial 4): 9.09%; percentage of IFNG+ NK cells (NKG2A−/NKG2C− NK cells; Trial 4): 18.7%; percentage CCL3+ NK cells (NKG2A−/NKG2C− NK cells; Trial 5): 23.5%; percentage CD107+ NK cells (NKG2A−/NKG2C− NK cells; Trial 5): 19%; percentage TNF+ NK cells (NKG2A−/NKG2C− NK cells; Trial 5): 6.08%; percentage of IFNG+ NK cells (NKG2A−/NKG2C− NK cells; Trial 5): 14.6%; percentage CCL3+ NK cells (NKG2A−/NKG2C− NK cells; Trial 6): 22%; percentage CD107+ NK cells (NKG2A−/NKG2C− NK cells; Trial 6): 20.1%; percentage TNF+ NK cells (NKG2A−/NKG2C− NK cells; Trial 6): 4.34%; percentage of IFNG+ NK cells (NKG2A−/NKG2C− NK cells; Trial 6): 10.7%; NKG2A−/NKG2C+ NK cell activation relative to positive control peptides (in words) (NKG2A−/NKG2C+ NK cells [2]; listed as SEQ ID NO. 3): strongest activation of NK cells, comparable with the positive control peptides for several markers assessed; NKG2A−/NKG2C+ NK cell activation relative to positive control peptides (in words) (NKG2A−/NKG2C+ NK cells [2]; listed as h5): strongest NK cell activation, comparable with the positive control peptides for several markers assessed; HLA-E surface expression stability (GeoMFI) (HLA-E; Trial 1): 569 GeoMFI; HLA-E surface expression stability (GeoMFI) (HLA-E; Trial 2): 509 GeoMFI; HLA-E surface expression stability (GeoMFI) (HLA-E; Trial 3): 566 GeoMFI; HLA-E surface expression stability (GeoMFI) (HLA-E; Trial 4): 750 GeoMFI; HLA-E surface expression stabilization strength (in words) (HLA-E; listed as BFAR263-271): closest to the experimental negative control (DMSO); also recorded: lowest; binding of peptide-HLA-E complex to CD94/NKG2C normalized to a fitted Rmax (CD94/NKG2C; CD94/NKG2C concentration 0 μM): −0.001; binding of peptide-HLA-E complex to CD94/NKG2C normalized to a fitted Rmax (CD94/NKG2C; CD94/NKG2C concentration 0.1 μM): 0.064; binding of peptide-HLA-E complex to CD94/NKG2C normalized to a fitted Rmax (CD94/NKG2C; CD94/NKG2C concentration 0.2 μM): 0.119; binding of peptide-HLA-E complex to CD94/NKG2C normalized to a fitted Rmax (CD94/NKG2C; CD94/NKG2C concentration 0.4 μM): 0.205; binding of peptide-HLA-E complex to CD94/NKG2C normalized to a fitted Rmax (CD94/NKG2C; CD94/NKG2C concentration 0.8 μM): 0.333; binding of peptide-HLA-E complex to CD94/NKG2C normalized to a fitted Rmax (CD94/NKG2C; CD94/NKG2C concentration 1.6 μM): 0.488; binding of peptide-HLA-E complex to CD94/NKG2C normalized to a fitted Rmax (CD94/NKG2C; CD94/NKG2C concentration 3.2 μM): 0.650; binding of peptide-HLA-E complex to CD94/NKG2C normalized to a fitted Rmax (CD94/NKG2C; CD94/NKG2C concentration 6.4 μM): 0.795; binding of peptide-HLA-E complex to CD94/NKG2C normalized to a fitted Rmax (CD94/NKG2C; CD94/NKG2C concentration 12.8 μM): 0.902; binding of peptide-HLA-E complex to CD94/NKG2C normalized to a fitted Rmax (CD94/NKG2C; CD94/NKG2C concentration 25.6 μM): 0.971; binding of peptide-HLA-E complex to CD94/NKG2C normalized to a fitted Rmax (CD94/NKG2C; CD94/NKG2C concentration 51.2 μM): 0.990; binding of peptide-HLA-E complex to CD94/NKG2C normalized to a fitted Rmax (CD94/NKG2C; CD94/NKG2C concentration 102.4 μM): 0.983; Binding of peptide-HLA-E complexes to CD94/NKG2C normalized to a theoretical Rmax (CD94/NKG2C; CD94/NKG2C analyte concentration 0 μM): 0.000; Binding of peptide-HLA-E complexes to CD94/NKG2C normalized to a theoretical Rmax (CD94/NKG2C; CD94/NKG2C analyte concentration 0.1 μM): 0.024; Binding of peptide-HLA-E complexes to CD94/NKG2C normalized to a theoretical Rmax (CD94/NKG2C; CD94/NKG2C analyte concentration 0.2 μM): 0.044; Binding of peptide-HLA-E complexes to CD94/NKG2C normalized to a theoretical Rmax (CD94/NKG2C; CD94/NKG2C analyte concentration 0.4 μM): 0.076; Binding of peptide-HLA-E complexes to CD94/NKG2C normalized to a theoretical Rmax (CD94/NKG2C; CD94/NKG2C analyte concentration 0.8 μM): 0.123; Binding of peptide-HLA-E complexes to CD94/NKG2C normalized to a theoretical Rmax (CD94/NKG2C; CD94/NKG2C analyte concentration 1.6 μM): 0.180; Binding of peptide-HLA-E complexes to CD94/NKG2C normalized to a theoretical Rmax (CD94/NKG2C; CD94/NKG2C analyte concentration 3.2 μM): 0.240; Binding of peptide-HLA-E complexes to CD94/NKG2C normalized to a theoretical Rmax (CD94/NKG2C; CD94/NKG2C analyte concentration 6.4 μM): 0.294; Binding of peptide-HLA-E complexes to CD94/NKG2C normalized to a theoretical Rmax (CD94/NKG2C; CD94/NKG2C analyte concentration 12.8 μM): 0.333; Binding of peptide-HLA-E complexes to CD94/NKG2C normalized to a theoretical Rmax (CD94/NKG2C; CD94/NKG2C analyte concentration 25.6 μM): 0.359; Binding of peptide-HLA-E complexes to CD94/NKG2C normalized to a theoretical Rmax (CD94/NKG2C; CD94/NKG2C analyte concentration 51.2 μM): 0.366; Binding of peptide-HLA-E complexes to CD94/NKG2C normalized to a theoretical Rmax (CD94/NKG2C; CD94/NKG2C analyte concentration 102.4 μM): 0.363
